Source: patent publication US20040162221A1, “Pyrazole derivatives and herbicides containing the same” (IDEMITSU KOSAN CO., LTD., priority 1998, published 2004)

How the values were obtained:
velvetleaf [1] = assay: Upland pre-emergence treatment test, velvetleaf; type: in vivo, velvetleaf (Abutilon theophrasti); conditions: for Herbicidal Efficacy AA = Velvetleaf: pre-emergence soil surface spray, 80 g/ha, 20th day after treatment, greenhouse; as to Herbicidal Efficacy AA = Velvetleaf: ranges in brackets are in %
Source text: (§1) 97 Parts by weight of talc (trade name: Zeaklite, supplied by Zeaklite Industry) as a carrier, 1.5 parts by weight of alkylarylsulfonic acid salt (trade name: Neoplex, supplied by Kao-Atlas K.K.) as a surfactant and 1.5 parts by weight of a nonionic and anionic surfactant (trade names Sorpol 800A, supplied by Toho Chemical Co., Ltd.) were uniformly pulverized and mixed to prepare a carrier for a wettable powder.
(§2) 90 Parts by weight of the above carrier for a wettable powder and 10 parts by weight of one of the compounds of the present invention were uniformly pulverized and mixed to obtain herbicides. Further, in Comparative Herbicide Examples, comparative herbicides were also prepared from the following compounds (A) and (B) in the same manner.
(§3) Herbicidal efficacy and phytotoxicity to crops were determined on the basis of the ratio of remaining plant weight to plant weight in non-treated plot=(remaining plant weight in treated plot/plant weight in non-treated-plot)×100. The ratings were applied to the following biological tests.
(§4) Seeds of weeds such as velvetleaf, common lambsquaters, redroot pigweed, common ragweed, green foxtail and large crabgrass and seeds of corn were sown in 1/5,000-are Wagner pots filled with upland soil, and covered with upland soil. Then, a predetermined amount of the herbicide prepared in the above (1) was suspended in water, and the suspension was uniformly sprayed onto the soil surface at a rate of 2,000 liters/hectare. Then, the seeds were grown in a greenhouse, and on the 20th day after the treatment, the herbicide was evaluated for herbicidal efficacy and phytotoxicity to corn on the basis of the ratings shown in (2).

common lambsquaters = assay: Upland pre-emergence treatment test, common lambsquaters; type: in vivo, common lambsquaters (Chenopodium album); conditions: pre-emergence soil surface spray, 80 g/ha, 20th day after treatment, greenhouse; also: ranges in brackets are in %
Source text: as §1, §2, §3, §4

redroot pigweed [2] = assay: Upland pre-emergence treatment test, redroot pigweed; type: in vivo, redroot pigweed (Amaranthus retroflexus); conditions: for Herbicidal Efficacy CC = Rough Pigweed: pre-emergence soil surface spray, 80 g/ha, 20th day after treatment, greenhouse; as to Herbicidal Efficacy CC = Rough Pigweed: ranges in brackets are in %
Source text: as §1, §2, §3, §4

common ragweed [3] = assay: Upland pre-emergence treatment test, common ragweed; type: in vivo, common ragweed (Ambrosia artemisilfolia); conditions: for Herbicidal Efficacy DD = Common ragweed: pre-emergence soil surface spray, 80 g/ha, 20th day after treatment, greenhouse; as to Herbicidal Efficacy DD = Common ragweed: ranges in brackets are in %
Source text: as §1, §2, §3, §4

green foxtail [4] = assay: Upland pre-emergence treatment test, green foxtail; type: in vivo, green foxtail (Setaria viridis); conditions: pre-emergence soil surface spray, 80 g/ha, 20th day after treatment, greenhouse; also: ranges in brackets are in %
Source text: as §1, §2, §3, §4

large crabgrass [5] = assay: Upland pre-emergence treatment test, large crabgrass; type: in vivo; conditions: pre-emergence soil surface spray, 80 g/ha, 20th day after treatment, greenhouse; also: ranges in brackets are in %
Source text: as §1, §2, §3, §4

corn [6] = assay: Upland pre-emergence treatment test, phytotoxicity to corn; type: in vivo; conditions: pre-emergence soil surface spray, 80 g/ha, 20th day after treatment, greenhouse; also: ranges in brackets are in %
Source text: as §1, §2, §3, §4

velvetleaf [7] = assay: Upland post-emergence treatment test, velvetleaf; type: in vivo, velvetleaf (Abutilon theophrasti); conditions: for Herbicidal Efficacy AA = Velvetleaf: post-emergence spray at 3-4 leaf stage, 80 g/ha, 30th day after treatment, greenhouse; as to Herbicidal Efficacy AA = Velvetleaf: ranges in brackets are in %
Source text: as §1, §2, §3
(§5) Seeds of weeds velvetleaf, redroot pigweed, common ragweed, green foxtail and large crabgrass and seeds of corn were sown in 1/5,000-are Wagner pots filled with upland soil, and covered with upland soil. The seeds were grown in a greenhouse, and at the stage of 3˜4 leaves of these plants, a predetermined amount of the herbicide prepared in the above (1) was suspended in water, and the suspension was uniformly sprayed onto leaf and stalk portions at a rate of 2,000 liters/hectare. Then, the plants were grown in the greenhouse, and on the 30th day after the treatment, the herbicide was evaluated for herbicidal efficacy and phytotoxicity to the corn on the basis of the ratings shown in (2).

redroot pigweed [8] = assay: Upland post-emergence treatment test, redroot pigweed; type: in vivo, redroot pigweed (Amaranthus retroflexus); conditions: for Herbicidal Efficacy CC = Redroot Pigweed: post-emergence spray at 3-4 leaf stage, 80 g/ha, 30th day after treatment, greenhouse; as to Herbicidal Efficacy CC = Redroot Pigweed: ranges in brackets are in %
Source text: as §1, §2, §3, §5

common ragweed [9] = assay: Upland post-emergence treatment test, common ragweed; type: in vivo, common ragweed (Ambrosia artemisilfolia); conditions: post-emergence spray at 3-4 leaf stage, 80 g/ha, 30th day after treatment, greenhouse; also: ranges in brackets are in %
Source text: as §1, §2, §3, §5

green foxtail [10] = assay: Upland post-emergence treatment test, green foxtail; type: in vivo, green foxtail (Setaria viridis); conditions: post-emergence spray at 3-4 leaf stage, 80 g/ha, 30th day after treatment, greenhouse; also: ranges in brackets are in %
Source text: as §1, §2, §3, §5

large crabgrass [11] = assay: Upland post-emergence treatment test, large crabgrass; type: in vivo; conditions: post-emergence spray at 3-4 leaf stage, 80 g/ha, 30th day after treatment, greenhouse; also: ranges in brackets are in %
Source text: as §1, §2, §3, §5

corn [12] = assay: Upland post-emergence treatment test, phytotoxicity to corn; type: in vivo; conditions: post-emergence spray at 3-4 leaf stage, 80 g/ha, 30th day after treatment, greenhouse; also: ranges in brackets are in %
Source text: as §1, §2, §3, §5

[13] = pre-emergence, text summary of Table 7

Row | SMILES | Herbicidal Efficacy AA = Velvetleaf (velvetleaf [1]) | herbicidal efficacy against velvetleaf (in words) (velvetleaf [1]; [13]) | Herbicidal Efficacy BB = Common lambsquaters (common lambsquaters) | Herbicidal Efficacy CC = Rough Pigweed (redroot pigweed [2]) | herbicidal efficacy against redroot pigweed (in words) (redroot pigweed [2]; [13]) | Herbicidal Efficacy DD = Common ragweed (common ragweed [3]) | herbicidal efficacy against common ragweed (in words) (common ragweed [3]; [13]) | Herbicidal Efficacy EE = Green foxtail (green foxtail [4]) | Herbicidal Efficacy FF = Large crabgrass (large crabgrass [5]) | Phytotoxicity Corn (corn [6]) | Herbicidal Efficacy AA = Velvetleaf (velvetleaf [7]) | herbicidal efficacy against velvetleaf (in words) (velvetleaf [7]; post-emergence, Tables 8 and 9) | Herbicidal Efficacy CC = Redroot Pigweed (redroot pigweed [8]) | herbicidal efficacy against redroot pigweed (in words) (redroot pigweed [8]; post-emergence, Tables 8 and 9) | Herbicidal Efficacy DD = Common ragweed (common ragweed [9]) | Herbicidal Efficacy EE = Green foxtail (green foxtail [10]) | Herbicidal Efficacy FF = Large crabgrass (large crabgrass [11]) | Phytotoxicity Corn (corn [12])
1 | CCn1ncc(C(=O)c2cc(C)c3c(c2C)C(C)CS3(=O)=O)c1O (stereo not shown) [Compound (B), reference compound] | 1 (61-80) | inferior | 4 (1-20) | 1 (61-80) | inferior | 2 (41-60) | inferior | 5 (0) | 5 (0) | − (100) | 2 (41-60) | inferior | 2 (41-60) | inferior | 5 (0) | 4 (1-20) | 5 (0) | ++ (80-89)
2 | CCS(=O)(=O)Oc1c(C(=O)c2ccc3c(c2C)C(C)(C)CS3(=O)=O)cnn1C [Compound 3] | 5 (0) | – | 5 (0) | 5 (0) | – | 5 (0) | – | 5 (0) | 5 (0) | – | 5 (0) | – | 5 (0) | – | 5 (0) | 5 (0) | 5 (0) | –
3 | Cc1ccc(S(=O)(=O)Oc2c(C(=O)c3ccc4c(c3C)C(C)(C)CS4(=O)=O)cnn2C)cc1 [Compound 18] | 5 (0) | – | 5 (0) | 5 (0) | – | 4 (1-20) | – | 5 (0) | 5 (0) | − (100) | 5 (0) | – | 5 (0) | – | 5 (0) | 5 (0) | 5 (0) | − (100)
4 | CCCS(=O)(=O)Oc1c(C(=O)c2ccc3c(c2C)C(C)(C)CS3(=O)=O)cnn1C [Compound 4, 5-(1′-methyl-5′-n-propanesulfonyloxypyrazol-4′-yl)carbonyl-3,3,4-trimethyl-2,3-dihydrobenzothiophene-1,1-dioxide] | 5 (0) | – | 5 (0) | 5 (0) | – | 5 (0) | – | 5 (0) | 5 (0) | − (100) | 5 (0) | – | 5 (0) | – | 5 (0) | 5 (0) | 5 (0) | − (100)
5 | Cc1c(C(=O)c2cnn(C)c2OC(=O)C2CCCCC2)ccc2c1C(C)(C)CS2(=O)=O [Compound 37] | 5 (0) | – | 5 (0) | 5 (0) | – | 5 (0) | – | 5 (0) | 5 (0) | − (100) | 5 (0) | – | 5 (0) | – | 5 (0) | 5 (0) | 5 (0) | − (100)
6 | CCC(=O)Oc1c(C(=O)c2ccc3c(c2C)C(C)(C)CS3(=O)=O)cnn1C [Compound 30, 5-(1′-methyl-5′-n-propionyloxypyrazol-4′-yl)carbonyl-3,3,4-trimethyl-2,3-dihydrobenzothiophene-1,1-dioxide] | 4 (1-20) | – | 5 (0) | 5 (0) | – | 5 (0) | – | 5 (0) | 5 (0) | − (100) | – | – | – | – | – | – | – | –
7 | Cc1c(C(=O)c2cnn(C)c2OC(=O)c2ccccc2)ccc2c1C(C)(C)CS2(=O)=O [Compound 39] | 5 (0) | – | 5 (0) | 5 (0) | – | 5 (0) | – | 5 (0) | 5 (0) | − (100) | 5 (0) | – | 5 (0) | – | 5 (0) | 5 (0) | 5 (0) | − (100)
8 | Cc1c(C(=O)c2cnn(C)c2O)ccc2c1C(C)(C)CS2(=O)=O [Compound 1, 5-(1′-methyl-5′-hydroxypyrazol-4′-yl)carbonyl-3,3,4-trimethyl-2,3-dihydrobenzothiophene-1,1-dioxide] | 5 (0) | – | 5 (0) | 5 (0) | – | 5 (0) | – | 5 (0) | 5 (0) | − (100) | 5 (0) | – | 5 (0) | – | 5 (0) | 5 (0) | 5 (0) | − (100)
9 | Cc1c(C(=O)c2cnn(C)c2O)ccc2c1C(C)(C)CS2(=O)=O.[Na] [Compound 52, 5-(1′-methyl-5′-hydroxypyrazol-4′-yl)carbonyl-3,3,4-trimethyl-2,3-dihdyrobenzothiophene-1,1-dioxide sodium salt] | 4 (1-20) | – | 5 (0) | 5 (0) | – | 4 (1-20) | – | 4 (1-20) | 5 (0) | − (100) | 5 (0) | – | 5 (0) | – | 5 (0) | 5 (0) | 5 (0) | − (100)
10 | CCN(CC)CC.Cc1c(C(=O)c2cnn(C)c2O)ccc2c1C(C)(C)CS2(=O)=O [Compound 50, 5-(1′-methyl-5′-hydroxypyrazol-4′-yl)carbonyl-3,3,4-trimethyl-2,3-dihydrobenzothiophene-1,1-dioxide triethylamine salt] | 5 (0) | – | 5 (0) | 5 (0) | – | 4 (1-20) | – | 5 (0) | 5 (0) | − (100) | 5 (0) | – | 5 (0) | – | 5 (0) | 5 (0) | 5 (0) | − (100)
